Measurements: patent US20170071908A1, “PYRROLIDINE- SUBSTITUTED FLAVONE DERIVATIVES FOR PREVENTION OR TREATMENT OF ORAL MUCOSITIS” (priority 2012, published 2017)
“Also recorded” adds a separate entry of the source.

How the values were obtained:
[1] = amifostine therapy, serious side-effect; cited from earlier work
[2] = tested on: Radiation Induced Oral Mucositis in Hamsters; experiment: Radiation induced oral mucositis in hamsters (left buccal pouch, single 40 Gy dose on Day 0); assay type: in vivo, Male LVG Syrian Golden Hamsters; settings: for maximum mean mucositis score: score scale 0-5
From the text: Male LVG Syrian Golden Hamsters, 5 to 6 weeks old, weighing 87.7 to 97.1 g (Charles River Laboratories, US) at the commencement of the study, were used. An ear punch was used to number the animals individually. Approximately 8-10 animals were housed per cage. The animals were acclimatized for at least 3 days before experimentation. During this period, they were observed daily to ensure that the animals are in good condition. The animals that presented poor condition were rejected.
Animals were randomly and prospectively divided into 5 groups: • i) Group 1: Animals (n=8) were administered with 5% w/v dextrose monohydrate intraperitoneally from Day 0 to Day 4 or from Day 0 to Day 9. • ii) Group 2: Animals (n=10) were administered with 10 mg/kg of compound A intraperitoneally from Day 0 to Day 4. • iii) Group 3: Animals (n=10) were administered with 20 mg/kg of compound A intraperitoneally from Day 0 to Day 4. • iv) Group 4: Animals (n=10) administered with 10 mg/kg of compound A intraperitoneally from Day 0 to Day 9. • v) Group 5: Animals (n=10) administered with 20 mg/kg of compound A intraperitoneally from day Day 0 to Day 9.
Mucositis induction: The animals were anesthetized and the left buccal pouch was everted, fixed and isolated using a lead shield. The left buccal pouch mucosa of the animal was exposed to radiation at a rate of 2.0 Gy/minute. A single dose of radiation (40 Gy/dose) was administered to all animals on Day 0. Radiation was generated with 160 kilovolt potential source at a focal distance of 21 cm, hardened with a 0.35 mm Al filtration system. Animals of Group 2 to 5 were treated with compound A as per the schedule detailed above one hour prior to the radiation. The volume administered to all the above Groups was 0.2 mL/100 g.
For evaluation of mucositis, the animals were anesthetized with an inhalation anesthetic and the left buccal pouch everted. Mucositis was scored visually using the following criteria for evaluation:
Weight change and survival were also measured throughout the study.
The significance of differences observed between the different treatment groups was evaluated by comparing the days with mucositis scores ≧3 and […] between groups using a chi-squared analysis.
An analysis of the severity of mucositis was performed using Mann-Whitney rank sum analysis to compare the visual mucositis scores for each treatment group to the vehicle control on each day of the analysis.
The percentage of animals in each group with ulcerative mucositis at each day of the study was evaluated.

[3] = tested on: Radiation Induced Oral Mucositis; experiment: Clinical study of compound A with external beam radiotherapy in squamous cell carcinoma of oral cavity, oropharynx and hypopharynx; assay type: in vivo
Experimental: The compound A and external beam radiotherapy (EBRT) were administered for six weeks i.e., 2 cycles of compound A and […] of radiation. One, three weeks (21 days) cycle of combination regimen comprised of dosing compound A for days 1 to 5 and EBRT on days 1 to 5, 8 to 12 and 15 to 19. The combination treatment schedule is depicted in the following table:
A] Dose of compound A: In the Phase I part of the clinical trial, 11 patients were enrolled and 100 mg/m^2/day of compound A was determined to be the maximum tolerated dose (MTD) as two dose limiting toxicities occurred at the higher dose of 140 mg/m^2/day. Additional 12 subjects were enrolled at the MTD dose level to confirm the safety and tolerability of that dose. B] Procedure: Compound A (100 mg/m^2/day) in 5% dextrose (200 mL) was administered to 19 patients as intravenous infusion over 30 minutes on days 1 to 5 of a 21 day cycle. After about 1.5 hours of infusion of compound A, the patients received EBRT (2 Grays per day for 5 days) to the affected body parts (primary tumor site and involved cervical lymph nodes) through linear accelerator. Patients continued to receive EBRT (2 Grays per day) on days 8-12 and 15-19. On days 6, 7, 13 and 14 patients were not infused with compound A, neither were exposed to radiotherapy.
The procedure was repeated for cycle 2.
At investigator's discretion, some patients were given additional radiation of up to 10 additional Grays (2 Grays per day for 5 days) commencing immediately after the completion of the prescribed radiation dose of 60 Grays. Total radiation dose for spinal cord was less than 48 Grays.
The Common Terminology Criteria for Adverse Events (version 3) (version 3, Publish Date: Aug. 9, 2006) laid down by the National Cancer Institute for oral mucositis in radiation therapy was followed.

[4] = 19 evaluable patients, 100 mg/m^2/day i.v. plus EBRT, CTCAE version 3

In the case of `NCCCNCCSP(=O)(O)O` [amifostine, Amifostine], the “hypotension, share of patients” value [1] is given as 62%.

With `CN1CC[C@@H](c2c(O)cc(O)c3c(=O)cc(-c4ccccc4Cl)oc23)[C@@H]1CO.Cl` [Compound A, (+)-trans-2-(2-Chlorophenyl)-5,7-dihydroxy-8-(2-hydroxymethyl-1-methyl-pyrrolidin-3-yl)-chromen-4-one hydrochloride] the “percent of days and number of days with ulcerative mucositis (score ≧3) compared to vehicle control” value ([2]; 10 mg/kg from Days 0 to 9) was “significantly reduced”, the “maximum mean mucositis score” value ([2]; Group 2: 10 mg/kg intraperitoneally Day 0 to Day 4, maximum on Day 18) was 3.0 and the “maximum mean mucositis score” value ([2]; Group 3: 20 mg/kg intraperitoneally Day 0 to Day 4, maximum on Day 16) was 3.0. The “mucositis severity (visual mucositis scores vs vehicle control, Mann-Whitney rank sum)” value ([2]; Group 4: 10 mg/kg i.p. Day 0 to Day 9, Day 18 (p=0.073) and Day 28 (p=0.064)) was “strong trend of lower scores”, the “mucositis severity (visual mucositis scores vs vehicle control, Mann-Whitney rank sum)” value ([2]; Group 4: 10 mg/kg i.p. Day 0 to Day 9, Day 24 (p=0.002) and Day 26 (p=0.024), hydrochloride, 10 mg/kg) was “significant reductions in mucositis; also recorded: significant improvement in mucositis scores” and the “reduction of percentage of animals with ulcerative mucositis (score ≧3) compared to Group 1” value (“reduction of percentage of animals” below) ([2]; Group 4: 10 mg/kg i.p. Day 0 to Day 9, Days 24 to 28, first of three values) was 72.7%. The “reduction of percentage of animals” value ([2]; Group 4: 10 mg/kg i.p. Day 0 to Day 9, Days 24 to 28, second of three values) was 83.8, the “reduction of percentage of animals” value ([2]; Group 4: 10 mg/kg i.p. Day 0 to Day 9, Days 24 to 28, third of three values) was 77.8% and the “percentage of animal days with a mucositis score of ≧3” value ([2]; Group 4: 10 mg/kg i.p. Day 0 to Day 9, entire study duration, vehicle control 63.0%) was 43.5%. For the same compound, the “maximum mean mucositis score” value ([2]; Group 4: 10 mg/kg intraperitoneally Day 0 to Day 9, maximum on Day 16) was 3.0, the “maximum mean mucositis score” value ([2]; Group 5: 20 mg/kg intraperitoneally Day 0 to Day 9, maximum on Day 16) was 3.1 and the “percent body weight change among groups” value ([2]; Groups 1 to 5, one-way ANOVA) was “no significant difference”. The “percentage of animal days with a mucositis score of ≧3 compared to vehicle control” value ([2]; other 3 treatment groups (Groups 2, 3 and 5), chi-squared analysis) was “not significantly different”, the “radioprotective effect, compared with historical rates of serious RIM (Grade 3 and above, Trotti et al.)” value ([3]; 19 evaluable patients, 100 mg/m^2/day i.v. plus EBRT) was “has radioprotective effects” and the “events of mucositis reported (all grades)” value ([3]; 19 evaluable patients, 100 mg/m^2/day i.v. plus EBRT 2 Grays per day, 2 cycles, CTCAE version 3) was “five”. The “events of mild mucositis (Grade 1)” value [3, 4] was “one”, the “events of moderate mucositis (Grade 2)” value [3, 4] was “one” and the “events of moderate stomatitis (Grade 2)” value [3, 4] was “two”. The “events of severe mucositis (Grade 3)” value [3, 4] was “one”, the “maximum tolerated dose (MTD)” value ([3]; Phase I part, intravenous infusion days 1 to 5 of a 21 day cycle, with EBRT) was 100 mg/m^2/day and the dose limiting toxicities ([3]; human, in vivo) was “two”.
